These compounds were tested against FGFR2 (Homo sapiens, UniProt P21802) (assay: FGFR2 Kinase Protocol - Condition 2 (Reaction Biology HotSpot radiometric kinase assay, no preincubation)). Settings: poly[Glu:Tyr] (4:1) 0.2 mg/ml, ATP 100 microM, 2 hr room temperature.
Assay type: biochemical
Method in brief: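 Ten-point, 3-fold compound dilutions were tested against wildtype or V564F FGFR2 with 100 µM ATP (33P-labelled), no preincubation, and 0.2 mg/ml poly[Glu:Tyr] (4:1) substrate. After 2 hr at room temperature, incorporation was read on P81 filter paper; IC50 fitted from activity remaining relative to vehicle.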

Chain of FGFR2 (P21802 22-821): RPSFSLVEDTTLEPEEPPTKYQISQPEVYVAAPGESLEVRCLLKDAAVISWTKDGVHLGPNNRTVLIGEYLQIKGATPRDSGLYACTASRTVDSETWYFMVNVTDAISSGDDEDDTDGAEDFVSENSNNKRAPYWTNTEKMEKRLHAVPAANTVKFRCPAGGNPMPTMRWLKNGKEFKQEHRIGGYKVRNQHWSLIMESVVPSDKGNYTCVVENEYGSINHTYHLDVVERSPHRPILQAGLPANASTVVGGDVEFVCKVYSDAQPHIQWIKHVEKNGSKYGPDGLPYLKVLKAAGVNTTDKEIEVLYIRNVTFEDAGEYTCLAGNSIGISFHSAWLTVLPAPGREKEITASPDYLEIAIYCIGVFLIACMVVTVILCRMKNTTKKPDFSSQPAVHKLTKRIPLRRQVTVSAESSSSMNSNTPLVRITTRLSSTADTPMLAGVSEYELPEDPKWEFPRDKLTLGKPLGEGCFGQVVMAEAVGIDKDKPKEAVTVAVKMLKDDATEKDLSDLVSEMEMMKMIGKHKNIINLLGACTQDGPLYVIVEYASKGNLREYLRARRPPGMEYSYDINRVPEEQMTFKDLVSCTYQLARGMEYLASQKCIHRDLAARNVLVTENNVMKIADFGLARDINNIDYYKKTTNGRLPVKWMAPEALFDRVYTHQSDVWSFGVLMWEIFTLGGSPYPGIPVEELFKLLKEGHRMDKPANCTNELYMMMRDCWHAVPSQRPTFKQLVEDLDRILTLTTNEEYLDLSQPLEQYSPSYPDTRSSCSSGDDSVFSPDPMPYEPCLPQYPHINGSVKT

Question: With `C=CC(=O)N1C[C@@H](n2nc(C#Cc3ccc4scnc4c3)c3c(N)ncnc32)C[C@@H]1COC` [Example 112, 1-((2R,4S)-4-(4-Amino-3-(benzo[d]thiazol-5-ylethynyl)-1H-pyrazolo[3,4-d]pyrimidin-1-yl)-2-(methoxymethyl)pyrrolidin-1-yl)prop-2-en-1-one] as the compound, how does the IC50 read?
Answer: The IC50 was ≤ 100 nM.

Question: For `C=CC(=O)N1C[C@@H](n2cc(C#Cc3c(Cl)cc4c(nc(C)n4C)c3F)c3c(N)ncnc32)C[C@@H]1COC` [Example 113, 1-((2R,4S)-4-(4-Amino-5-((6-chloro-4-fluoro-1,2-dimethyl-1H-benzo[d]imidazol-5-yl)ethynyl)-7H-pyrrolo[2,3-d]pyrimidin-7-yl)-2-(methoxymethyl)pyrrolidin-1-yl)prop-2-en-1-one], which IC50 is on record?
Answer: The IC50 was ≤ 100 nM.

Question: For `C=CC(=O)N1C[C@@H](n2nc(C#Cc3ccn4ncnc4c3)c3c(N)ncnc32)C[C@@H]1COC` [Example 114, 1-[(2R,4S)-4-[4-Amino-3-(2-[[1,2,4]triazolo[1,5-a]pyridin-7-yl]ethynyl)pyrazolo[3,4-d]pyrimidin-1-yl]-2-(methoxymethyl)pyrrolidin-1-yl]prop-2-en-1-one], which IC50 is on record?
Answer: Its IC50 is 100 to 1000 nM.

Question: For `C=CC(=O)N1C[C@@H](n2nc(C#Cc3ccc4ocnc4c3)c3c(N)ncnc32)C[C@@H]1COC` [Example 115, 1-[(2R,4S)-4-[4-Amino-3-[2-(1,3-benzoxazol-5-yl)ethynyl]pyrazolo[3,4-d]pyrimidin-1-yl]-2-(methoxymethyl)pyrrolidin-1-yl]prop-2-en-1-one], which IC50 is on record?
Answer: Its IC50 is ≤ 100 nM.

Question: `C=CC(=O)N1C[C@@H](n2nc(C#Cc3c(Cl)cc4c(ncn4CC)c3F)c3c(N)ncnc32)C[C@@H]1COC` [Example 116, 1-[(2R,4S)-4-[4-Amino-3-[2-(6-chloro-1-ethyl-4-fluoro-1,3-benzodiazol-5-yl)ethynyl]pyrazolo [3,4-d]pyrimidin-1-yl]-2-(methoxymethyl)pyrrolidin-1-yl]prop-2-en-1-one] was tested. Which IC50 did it give?
Answer: Its IC50 is ≤ 100 nM.

Question: Which IC50 does the source give for `C=CC(=O)N1C[C@@H](n2nc(C#Cc3c(Cl)cc4c(ncn4CC)c3F)c3c(N)nccc32)C[C@@H]1COC` [Example 117, 1-[(2R,4S)-4-[4-Amino-3-[2-(6-chloro-1-ethyl-4-fluoro-1,3-benzodiazol-5-yl)ethynyl]pyrazolo[4,3-c]pyridin-1-yl]-2-(methoxymethyl)pyrrolidin-1-yl]prop-2-en-1-one] here?
Answer: The IC50 was ≤ 100 nM.

Question: `C=CC(=O)N1C[C@@H](n2cc(C#Cc3c(Cl)cc4c(ncn4CC)c3F)c3c(N)ncnc32)C[C@@H]1COC` [Example 118, 1-1-[(2R,4S)-4-[4-Amino-5-[2-(6-chloro-1-ethyl-4-fluoro-1,3-benzodiazol-5-yl)ethynyl]pyrrolo[2,3-d]pyrimidin-7-yl]-2-(methoxymethyl)pyrrolidin-1-yl]prop-2-en-1-one] was tested. Which IC50 did it give?
Answer: The IC50 was ≤ 100 nM.

Question: `C=CC(=O)N1C[C@@H](n2nc(C#Cc3cc4ncoc4cc3F)c3c(N)ncnc32)C[C@@H]1COC` [Example 119, 1-[(2R,4S)-4-[4-Amino-3-[2-(6-fluoro-1,3-benzoxazol-5-yl)ethynyl]pyrazolo[3,4-d]pyrimidin-1-yl]-2-(methoxymethyl)pyrrolidin-1-yl]prop-2-en-1-one] was tested. Which IC50 did it give?
Answer: Its IC50 is ≤ 100 nM.

Question: `C=CC(=O)N1C[C@@H](n2nc(C#Cc3cc4ncn(C)c4c(F)c3F)c3c(N)ncnc32)C[C@@H]1COC` [Example 120, 1-((2R,4S)-4-(4-Amino-3-((6,7-difluoro-1-methyl-1H-benzo[d]imidazol-5-yl)ethynyl)-1H-pyrazolo[3,4-d]pyrimidin-1-yl)-2-(methoxymethyl)pyrrolidin-1-yl)prop-2-en-1-one] was tested. Which IC50 did it give?
Answer: Its IC50 is ≤ 100 nM.

Question: `C=CC(=O)N1C[C@@H](n2nc(C#Cc3cc4ncn(C)c4c(F)c3Cl)c3c(N)ncnc32)C[C@@H]1COC` [Example 121, 1-[(2R,4S)-4-[4-Amino-3-[2-(6-chloro-7-fluoro-1-methyl-1,3-benzodiazol-5-yl)ethynyl]pyrazolo[3,4-d]pyrimidin-1-yl]-2-(methoxymethyl)pyrrolidin-1-yl]prop-2-en-1-one] was tested. Which IC50 did it give?
Answer: Its IC50 is ≤ 100 nM.

Question: How did the IC50 turn out when `C=CC(=O)N1C[C@@H](n2nc(C#Cc3cc4nc(C)n(C)c4c(F)c3F)c3c(N)ncnc32)C[C@@H]1COC` [Example 122, 1-[(2R,4S)-4-[4-Amino-3-[2-(6,7-difluoro-1,2-dimethyl-1,3-benzodiazol-5-yl)ethynyl]pyrazolo[3,4-d]pyrimidin-1-yl]-2-(methoxymethyl)pyrrolidin-1-yl]prop-2-en-1-one] was run?
Answer: The IC50 was ≤ 100 nM.

Question: How did the IC50 turn out when `C=CC(=O)N1C[C@@H](n2nc(C#Cc3cc4ncn(CC)c4c(F)c3F)c3c(N)ncnc32)C[C@@H]1COC` [Example 123, 1-[(2R,4S)-4-[4-Amino-3-[2-(1-ethyl-6,7-difluoro-1,3-benzodiazol-5-yl)ethynyl]pyrazolo[3,4-d]pyrimidin-1-yl]-2-(methoxymethyl)pyrrolidin-1-yl]prop-2-en-1-one] was run?
Answer: Its IC50 is ≤ 100 nM.

Question: Which IC50 does the source give for `C=CC(=O)N1C[C@@H](n2nc(C#Cc3cc4nccn4cc3F)c3c(N)ncnc32)C[C@@H]1COC` [Example 124, 1-((2R,4S)-4-(4-Amino-3-((6-fluoroimidazo[1,2-a]pyridin-7-yl)ethynyl)-1H-pyrazolo[3,4-d]pyrimidin-1-yl)-2-(methoxymethyl)pyrrolidin-1-yl)prop-2-en-1-one] here?
Answer: Its IC50 is ≤ 100 nM.

Question: `C=CC(=O)N1C[C@@H](n2nc(C#Cc3cc4nc(C)n(C)c4c(F)c3Cl)c3c(N)ncnc32)C[C@@H]1COC` [Example 125, 1-[(2R,4S)-4-[4-Amino-3-[2-(6-chloro-7-fluoro-1,2-dimethyl-1,3-benzodiazol-5-yl)ethynyl]pyrazolo[3,4-d]pyrimidin-1-yl]-2-(methoxymethyl)pyrrolidin-1-yl]prop-2-en-1-one] was tested. Which IC50 did it give?
Answer: Its IC50 is ≤ 100 nM.

Question: How did the IC50 turn out when `C=CC(=O)N1C[C@@H](n2nc(C#Cc3cc4ncn(C5CC5)c4cc3Cl)c3c(N)ncnc32)C[C@@H]1COC` [Example 126, 1-[(2R,4S)-4-[4-Amino-3-[2-(6-chloro-1-cyclopropyl-1,3-benzodiazol-5-yl)ethynyl]pyrazolo[3,4-d]pyrimidin-1-yl]-2-(methoxymethyl)pyrrolidin-1-yl]prop-2-en-1-one] was run?
Answer: The IC50 was ≤ 100 nM.

Question: `C=CC(=O)N1C[C@@H](n2cc(C#Cc3cc4ncn(C5CC5)c4cc3Cl)c3c(N)ncnc32)C[C@@H]1COC` [Example 127, 1-[(2R,4S)-4-[4-Amino-5-[2-(6-chloro-1-cyclopropyl-1,3-benzodiazol-5-yl)ethynyl]pyrrolo[2,3-d]pyrimidin-7-yl]-2-(methoxymethyl)pyrrolidin-1-yl] prop-2-en-1-one] was tested. Which IC50 did it give?
Answer: The IC50 was ≤ 100 nM.

Question: `C=CC(=O)N1C[C@@H](n2nc(C#Cc3cc4ncn(CC)c4c(F)c3Cl)c3c(N)ncnc32)C[C@@H]1COC` [Example 128, 1-[(2R,4S)-4-[4-amino-3-[2-(6-chloro-1-ethyl-7-fluoro-1,3-benzodiazol-5-yl)ethynyl]pyrazolo[3,4-d]pyrimidin-1-yl]-2-(methoxymethyl)pyrrolidin-1-yl]prop-2-en-1-one] was tested. Which IC50 did it give?
Answer: Its IC50 is ≤ 100 nM.

Question: `C=CC(=O)N1C[C@@H](n2nc(C#Cc3cc4nc(C)n(C(F)F)c4cc3Cl)c3c(N)ncnc32)C[C@@H]1COC` [Example 129, 1-[(2R,4S)-4-(4-Amino-3-{2-[6-chloro-1-(difluoromethyl)-2-methyl-1,3-benzodiazol-5-yl]ethynyl}pyrazolo[3,4-d]pyrimidin-1-yl)-2-(methoxymethyl)pyrrolidin-1-yl]prop-2-en-1-one] was tested. Which IC50 did it give?
Answer: The IC50 was ≤ 100 nM.

Question: Which IC50 does the source give for `C=CC(=O)N1C[C@@H](n2nc(C#Cc3cc4nc(C)n(C(F)F)c4cc3Cl)c3c(N)nccc32)C[C@@H]1COC` [Example 130, 1-[(2R,4S)-4-(4-Amino-3-{2-[6-chloro-1-(difluoromethyl)-2-methyl-1,3-benzodiazol-5-yl]ethynyl}pyrazolo[4,3-c]pyridin-1-yl)-2-(methoxymethyl)pyrrolidin-1-yl]prop-2-en-1-one] here?
Answer: The IC50 was ≤ 100 nM.

Question: With `C=CC(=O)N1C[C@@H](n2cc(C#Cc3cc4nc(C)n(C(F)F)c4cc3Cl)c3c(N)ncnc32)C[C@@H]1COC` [Example 131, 1-[(2R,4S)-4-(4-Amino-5-{2-[6-chloro-1-(difluoromethyl)-2-methyl-1,3-benzodiazol-5-yl]ethynyl}pyrrolo[2,3-d]pyrimidin-7-yl)-2-(methoxymethyl)pyrrolidin-1-yl]prop-2-en-1-one] as the compound, how does the IC50 read?
Answer: The IC50 was ≤ 100 nM.

Question: With `C=CC(=O)N1CC[C@H](n2nc(C#Cc3cc4ncn(CC)c4cc3Cl)c3c(N)ncnc32)C1` [Example 132, 1-[(3S)-3-{4-Amino-3-[2-(6-chloro-1-ethyl-1,3-benzodiazol-5-yl)ethynyl]pyrazolo[3,4-d]pyrimidin-1-yl}pyrrolidin-1-yl]prop-2-en-1-one] as the compound, how does the IC50 read?
Answer: Its IC50 is ≤ 100 nM.

Question: `C=CC(=O)N1CC[C@H](n2nc(C#Cc3cc4ncn(CC)c4cc3Cl)c3c(N)nccc32)C1` [Example 133, (S)-1-(3-(4-Amino-3-((6-chloro-1-ethyl-1H-benzo[d]imidazol-5-yl)ethynyl)-1H-pyrazolo[4,3-c]pyridin-1-yl)pyrrolidin-1-yl)prop-2-en-1-one] was tested. Which IC50 did it give?
Answer: The IC50 was ≤ 100 nM.

Question: `[2H]C([2H])([2H])OC[C@H]1C[C@H](n2nc(C#Cc3c(F)cc4c(ncn4C)c3F)c3c(N)ncnc32)CN1C(=O)C=C` [Example 134, 1-[(2R,4S)-4-[4-Amino-3-[2-(4,6-difluoro-1-methyl-1,3-benzodiazol-5-yl)ethynyl]pyrazolo[3,4-d]pyrimidin-1-yl]-2-[(2H3)methoxymethyl]pyrrolidin-1-yl]prop-2-en-1-one] was tested. Which IC50 did it give?
Answer: Its IC50 is ≤ 100 nM.

Question: `[2H]C([2H])([2H])OC[C@H]1C[C@H](n2nc(C#Cc3cc4ncn(CC)c4cc3Cl)c3c(N)ncnc32)CN1C(=O)C=C` [Example 135, 1-[(2R,4S)-4-[4-Amino-3-[2-(6-chloro-1-ethyl-1,3-benzodiazol-5-yl)ethynyl]pyrazolo[3,4-d]pyrimidin-1-yl]-2-[(2H3)methoxymethyl]pyrrolidin-1-yl]prop-2-en-1-one] was tested. Which IC50 did it give?
Answer: The IC50 was ≤ 100 nM.

Question: With `C=CC(=O)N1CC[C@H](n2nc(C#Cc3cc4ncn(CC)c4c(F)c3Cl)c3c(N)nccc32)C1` [Example 136, (S)-1-(3-(4-Amino-3-((6-chloro-1-ethyl-7-fluoro-1H-benzo[d]imidazol-5-yl)ethynyl)-1H-pyrazolo[4,3-c]pyridin-1-yl)pyrrolidin-1-yl)prop-2-en-1-one] as the compound, how does the IC50 read?
Answer: Its IC50 is ≤ 100 nM.
